In patent US4720483A, “Oligopeptides and intermediates and processes for their manufacture” (Ciba-Geigy Corporation, priority 1985, dated 1988):
Where a name gives a salt, the structure may show the parent alone.

Test: vasodilatory and cardiovascular actions in femtomol dosages, with and without blockers of the sympathetic nervous system
Assay type: in vivo
Settings: blocker of the sympathetic nervous system
Text: In femtomol dosages, the peptide-amides according to the invention have a vasodilatory action and result in a reduction of the blood pressure and an increase in the heart rate and in the contractility of the myocardium. The actions are not affected by blockers of the sympathetic nervous system, for example metoprolol [1-isopropylamino-3-(4-{2-methoxyethyl}phenoxy)-propan-2-ol] and Trandate® (labetalol hydrochloride), whereas the action of noradrenalin and of adrenalin in serum is suppressed by those substances.

CC(CCc1ccccc1)NCC(O)c1ccc(O)c(C(N)=O)c1 (centres unmarked) [Trandate, labetalol hydrochloride]
action of noradrenalin and of adrenalin in serum: suppressed

COCCc1ccc(OCC(O)CNC(C)C)cc1 (centres unmarked) [metoprolol, 1-isopropylamino-3-(4-{2-methoxyethyl}phenoxy)-propan-2-ol]
action of noradrenalin and of adrenalin in serum: suppressed
